The text below walks through data of patent US8586751B2, “Nicotinamide compounds useful as kinase modulators” (Bristol-Myers Squibb Company, priority 2009, dated 2013).

One assay has as its target T1, human recombinant Btk (Homo sapiens, UniProt Q06187).
T1 construct: purchased Invitrogen Corporation
The assay can be described thus: Human Recombinant Btk Enzyme Assay (LLE_BTK). In kind it is biochemical. The method, then: Human Recombinant Btk Enzyme Assay
To V-bottom 384-well plates were added test compounds, human recombinant Btk (1 nM, Invitrogen Corporation), fluoresceinated peptide (1.5 μM), ATP (20 μM), and assay buffer (20 mM HEPES pH 7.4, 10 mM MgCl2, 0.015% Brij35 and 4 mM DTT in 1.6% DMSO), with a final volume of 30 μL. After incubating at room temperature for 60 min, the reaction was terminated by adding 45 μl of 35 mM EDTA to each sample. The reaction mixture was analyzed on the Caliper LABCHIP® 3000 (Caliper, Hopkinton, Mass.) by electrophoretic separation of the fluorescent substrate and phosphorylated product. Inhibition data were calculated by comparison to no enzyme control reactions for 100% inhibition and no inhibitor controls for 0% inhibition. Dose response curves were generated to determine the concentration required inhibiting 50% of kinase activity (IC50). Compounds were dissolved at 10 mM in dimethylsulfoxide (DMSO) and evaluated at eleven concentrations.
Using this assay, the following IC50 values derived by non-linear regression analysis were determined and compared to those values of certain compounds in U.S. Publication No. 2007/078136 and U.S. Publication No. 2008/045536.

In assay [1] the test system is Ramos B cells with beta-lactamase reporter gene under control of an NFAT response element. Briefly: NFAT-bla RA1 Reporter Assay (Ramos-NFAT). The following applies: read-out: IMM Ramos-NFAT (IC50). In kind it is cell-based, human. As for the experimental part:
NFAT-bla RA1 Reporter Assay
Ramos B cells containing a stable integration of a beta-lactamase reporter gene under the control of an NFAT response element (NFAT-bla RA1, Invitrogen, K1434) at a density of 100×10^3 cells/well were incubated with test compounds at 37° C. for 30 min prior to stimulation with F(ab′)2 anti-human IgM (Jackson ImmunoResearch, 109-006-129) at 2.5 μg/ml for 4.5 hrs at 37° C. After stimulation, LiveBLAzer-FRET B/G substrate (CCF2/AM, or CCF4/AM, Invitrogen) was added to each well and incubated for 90 min at room temperature in the dark. Assay plates were read on an LJL Analyst, with raw emission values subtracted from a media-only blank containing substrate in assay media (no cells). The ratios of 460 nm/530 nm emission (405 nm excitation) were used to calculate the amount of stimulation.

Like-named read-outs stand apart in the source and are kept apart here.

T1 sequence (Q06187 whole entry): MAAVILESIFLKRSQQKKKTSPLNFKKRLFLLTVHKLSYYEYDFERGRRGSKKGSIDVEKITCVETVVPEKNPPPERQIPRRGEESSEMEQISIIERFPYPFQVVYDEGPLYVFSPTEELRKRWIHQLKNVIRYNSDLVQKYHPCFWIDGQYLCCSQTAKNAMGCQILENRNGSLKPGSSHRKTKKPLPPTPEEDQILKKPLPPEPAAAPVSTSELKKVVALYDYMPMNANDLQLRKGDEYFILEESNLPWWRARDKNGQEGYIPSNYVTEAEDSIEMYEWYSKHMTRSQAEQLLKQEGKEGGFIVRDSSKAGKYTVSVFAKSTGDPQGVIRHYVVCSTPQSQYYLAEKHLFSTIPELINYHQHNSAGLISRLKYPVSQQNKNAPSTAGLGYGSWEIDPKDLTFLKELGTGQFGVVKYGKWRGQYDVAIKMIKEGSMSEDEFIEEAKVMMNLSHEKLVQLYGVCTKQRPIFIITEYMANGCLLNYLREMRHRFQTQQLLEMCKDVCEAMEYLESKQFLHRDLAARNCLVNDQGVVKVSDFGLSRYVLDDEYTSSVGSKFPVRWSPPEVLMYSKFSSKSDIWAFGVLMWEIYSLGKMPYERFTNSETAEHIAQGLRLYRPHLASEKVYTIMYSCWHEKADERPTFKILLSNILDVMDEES

Usually IC50 stands for the concentration that gives 50% inhibition. As for `CN1CCN(c2ccc(Nc3nc(N4CCC(O)CC4)c(F)cc3C(N)=O)cc2)CC1` [Example 407], the IC50 was determined as 30 nM on human recombinant Btk and 120 nM in assay [1] (Homo sapiens, Ramos).

For `CN1CCN(c2ccc(Nc3nc(N4CCC[C@@H](NC(=O)c5ccc(F)cc5)C4)c(F)cc3C(N)=O)cc2)CC1` [Example 412], the IC50 at human recombinant Btk was 1 nM; in assay [1] (Homo sapiens, Ramos), 180 nM.

On to `CN1CCN(c2ccc(Nc3nc(N4CCC[C@@H](NC(=O)c5ccc(F)c(F)c5)C4)c(F)cc3C(N)=O)cc2)CC1` [Example 413], for which the IC50 was determined as 1 nM on human recombinant Btk and 240 nM in assay [1] (Homo sapiens, Ramos).

Turning to `CN1CCN(c2ccc(Nc3nc(N4CCC[C@@H](NC(=O)c5ccc(N(C)C)cc5)C4)c(F)cc3C(N)=O)cc2)CC1` [Example 414], the IC50 on human recombinant Btk came out at 2 nM; in assay [1] (Homo sapiens, Ramos), 230 nM.

With `CN1CCN(c2ccc(Nc3nc(N4CCC[C@@H](N(C)C(=O)c5ccccc5)C4)c(F)cc3C(N)=O)cc2)CC1` [Example 418], the IC50 at human recombinant Btk amounted to 2 nM; in assay [1] (Homo sapiens, Ramos), 380 nM.

Take `CN1CCN(c2ccc(Nc3nc(N4CCC[C@@H](N5CCCC5=O)C4)c(F)cc3C(N)=O)cc2)CC1` [Example 419]: the IC50 at human recombinant Btk worked out at 1 nM; in assay [1] (Homo sapiens, Ramos), 180 nM.

For `NC(=O)c1cc(F)c(N2CCC[C@@H](NC(=O)Nc3nccs3)C2)nc1Nc1ccc(N2CCOCC2)cc1` [Example 421], the IC50 on human recombinant Btk turned out to be 2 nM; in assay [1] (Homo sapiens, Ramos), 40 nM.

On to `NC(=O)c1cc(F)c(N2CCC[C@@H](NC(=O)c3ccccc3)C2)nc1Nc1ccc(N2CCOCC2)cc1` [Example 422], for which the IC50 on human recombinant Btk came out at 20 nM; in assay [1] (Homo sapiens, Ramos), 120 nM.

On to `NC(=O)c1cc(F)c(C2CCCC(OC(=O)c3ccccc3)C2)nc1Nc1ccc(N2CCOCC2)cc1` (stereo not drawn) [Example 430], for which the IC50 on human recombinant Btk stood at 740 nM; in assay [1] (Homo sapiens, Ramos), 10000 nM.

For `COc1ccc([C@H](C)N[C@H]2CCC[C@H](c3nc(Nc4ccc(N5CCOCC5)cc4)c(C(N)=O)cc3F)C2)cc1` [Example 435], the IC50 was 1300 nM on human recombinant Btk and 4500 nM in assay [1] (Homo sapiens, Ramos).

As to `COc1ccc([C@H](C)N[C@H]2CCC[C@@H](c3nc(Nc4ccc(N5CCOCC5)cc4)c(C(N)=O)cc3F)C2)cc1` [Example 436], the IC50 at human recombinant Btk stood at 2200 nM; in assay [1] (Homo sapiens, Ramos), 7900 nM.

Regarding `COc1ccc([C@H](C)N[C@@H]2C=C(c3nc(Nc4ccc(N5CCOCC5)cc4)c(C(N)=O)cc3F)CCC2)cc1` [Example 437], the IC50 on human recombinant Btk came to 740 nM; in assay [1] (Homo sapiens, Ramos), 2900 nM.

For `NC(=O)c1cc(F)c(N2CCC[C@@H](NC(=O)Nc3nccs3)C2)nc1Nc1ccc(N2CCOCC2)c(F)c1` [Example 451], the concentration for half-maximal inhibition (IC50) on human recombinant Btk was found to be 0.8 nM; in assay [1] (Homo sapiens, Ramos), 80 nM.

With `NC(=O)c1cc(F)c(N2CCC[C@@H](NC(=O)c3ccc(F)c(Cl)c3)C2)nc1Nc1ccc(F)cc1` [Example 456], the IC50 on human recombinant Btk turned out to be 4300 nM; in assay [1] (Homo sapiens, Ramos), 10000 nM.

With `CN(C)CCc1ccc(Nc2nc(N3CCC[C@@H](NC(=O)Nc4nccs4)C3)c(F)cc2C(N)=O)cc1` [Example 458], the IC50 amounted to 0.6 nM at human recombinant Btk; 30 nM in assay [1] (Homo sapiens, Ramos); 50 nM in assay [1].

As to `CN(C)CCc1ccc(Nc2nc(N3CCC[C@@H](NC(=O)Nc4nncs4)C3)c(F)cc2C(N)=O)cc1` [Example 462], the IC50 at human recombinant Btk was 2 nM; in assay [1] (Homo sapiens, Ramos), 250 nM.

Turning to `CN(C)CCc1ccc(Nc2nc(N3CCCC(F)(F)C3)c(F)cc2C(N)=O)cc1` [Example 475], the IC50 was 20 nM at human recombinant Btk and 100 nM in assay [1] (Homo sapiens, Ramos).

Regarding `CN1CCN(c2ccc(Nc3nc(N4CCC[C@@H](NC(=O)c5ccccc5)C4)c(F)cc3C(N)=O)cc2F)CC1` [Example 479], the IC50 came to 1 nM on human recombinant Btk and 70 nM in assay [1] (Homo sapiens, Ramos).

Turning to `CN1CCN(c2ccc(Nc3nc(N4CCC[C@@H](NC(=O)Nc5nccs5)C4)c(F)cc3C(N)=O)cc2F)CC1` [Example 480], the IC50 on human recombinant Btk worked out at 0.2 nM; in assay [1] (Homo sapiens, Ramos), 40 nM.

With `CN1CCN(c2ccc(Nc3nc(N4CCC[C@@H](N5CCCC5=O)C4)c(F)cc3C(N)=O)cc2F)CC1` [Example 482], the IC50 at human recombinant Btk stood at 2 nM; in assay [1] (Homo sapiens, Ramos) it was 170 nM.

Turning to `CN1CCC(c2ccc(Nc3nc(N4CCCCC4)c(F)cc3C(N)=O)cc2)CC1` [Example 489], the IC50 is 10 nM on human recombinant Btk and 100 nM in assay [1] (Homo sapiens, Ramos).

On to `CN1CCC(c2ccc(Nc3nc(N4CCC[C@@H](NC(=O)c5ccccc5)C4)c(F)cc3C(N)=O)cc2)CC1` [Example 490], for which the IC50 was found to be 3 nM on human recombinant Btk and 270 nM in assay [1] (Homo sapiens, Ramos).

As for `CN1CCC(c2ccc(Nc3nc(N4CCC[C@@H](NC(=O)c5ccc(F)cc5)C4)c(F)cc3C(N)=O)cc2)CC1` [Example 491], the IC50 is 2 nM on human recombinant Btk and 200 nM in assay [1] (Homo sapiens, Ramos).

As to `CN1CCC(c2ccc(Nc3nc(N4CCC[C@@H](NC(=O)Nc5nccs5)C4)c(F)cc3C(N)=O)cc2)CC1` [Example 492], the IC50 on human recombinant Btk is 1 nM; in assay [1] (Homo sapiens, Ramos), 20 nM.

Turning to `CN1CCC(c2ccc(Nc3nc(N4CCC[C@@H](NC(=O)Nc5nncs5)C4)c(F)cc3C(N)=O)cc2)CC1` [Example 493], the IC50 came out at 0.7 nM on human recombinant Btk and 130 nM in assay [1] (Homo sapiens, Ramos).

Consider `CN1CCC(C)(c2ccc(Nc3nc(N4CCC[C@@H](NC(=O)Nc5ncc(F)s5)C4)c(F)cc3C(N)=O)cc2)CC1` [Example 495], for which the 50% inhibitory concentration (IC50) was found to be 1 nM at human recombinant Btk and 80 nM in assay [1] (Homo sapiens, Ramos).

With `NC(=O)c1cc(F)c(N2CCC[C@@H](NC(=O)c3ccccc3)C2)nc1Nc1ccc(N2CCS(=O)(=O)CC2)cc1` [Example 503], the IC50 is 7 nM at human recombinant Btk and 80 nM in assay [1] (Homo sapiens, Ramos).

For `CS(=O)(=O)c1ccc(Nc2nc(N3CCC[C@@H](NC(=O)c4ccccc4)C3)c(F)cc2C(N)=O)cc1` [Example 506], the IC50 at human recombinant Btk was 2 nM; in assay [1] (Homo sapiens, Ramos), 150 nM.

`CN(C)S(=O)(=O)c1ccc(Nc2nc(N3CCC[C@@H](NC(=O)c4ccccc4)C3)c(F)cc2C(N)=O)cc1` [Example 508]: the IC50 worked out at 0.8 nM at human recombinant Btk and 140 nM in assay [1] (Homo sapiens, Ramos).

For the molecule `CN1CCC(C)(c2ccc(Nc3nc(N4CCC[C@@H](NC(=O)c5ccccc5)C4)c(F)cc3C(N)=O)cc2)CC1` [Example 518], the IC50 on human recombinant Btk is 2 nM; in assay [1] (Homo sapiens, Ramos) it was 30 nM.

`CC(C)(C)OC(=O)N1CCCC(c2ccc(Nc3nc(N4CCCCC4)c(F)cc3C(N)=O)cc2)C1` (stereo not drawn) [Example 523]: the IC50 at human recombinant Btk stood at 3700 nM; in assay [1] (Homo sapiens, Ramos) it was 10000 nM.

As to `CC(C)(C)OC(=O)N1CCC(O)(c2ccc(Nc3nc(N4CCCCC4)c(F)cc3C(N)=O)cc2)C(C)(C)C1` (stereo not drawn) [Example 524], the IC50 stood at 1600 nM at human recombinant Btk and 5700 nM in assay [1] (Homo sapiens, Ramos).

With `CN1CCN(C(=O)c2ccc(Nc3nc(N4CCC[C@@H](NC(=O)Nc5nccs5)C4)c(F)cc3C(N)=O)cc2)CC1` [Example 544], the IC50 at human recombinant Btk is 0.9 nM; in assay [1] (Homo sapiens, Ramos), 560 nM.

For `NC(=O)c1cc(F)c(N2CCC[C@@H](NC(=O)Nc3nccs3)C2)nc1Nc1ccc(CCO)cc1` [Example 545], the IC50 at human recombinant Btk worked out at 2 nM; in assay [1] (Homo sapiens, Ramos) it was 160 nM.

As for `CS(=O)(=O)c1ccc(Nc2nc(N3CCC[C@@H](NC(=O)Nc4nccs4)C3)c(F)cc2C(N)=O)cc1` [Example 546], the IC50 amounted to 3 nM on human recombinant Btk and 230 nM in assay [1] (Homo sapiens, Ramos).

Take `NC(=O)c1cc(F)c(N2CCC[C@@H](NC(=O)Nc3nccs3)C2)nc1Nc1ccc(CCN2CCC2)cc1` [Example 547]: the IC50 on human recombinant Btk was 1 nM; in assay [1] (Homo sapiens, Ramos), 50 nM.

Consider `NC(=O)c1cc(F)c(N2CCC[C@@H](NC(=O)Nc3nccs3)C2)nc1Nc1ccc(CCn2ccnc2)cc1` [Example 548], for which the IC50 at human recombinant Btk worked out at 2 nM; in assay [1] (Homo sapiens, Ramos), 270 nM.

As to `NC(=O)c1cc(F)c(N2CCC[C@@H](NC(=O)Nc3nccs3)C2)nc1Nc1ccc(CCN2CCCC2)cc1` [Example 549], the concentration for half-maximal inhibition (IC50) on human recombinant Btk was determined as 0.7 nM; in assay [1] (Homo sapiens, Ramos) it was 30 nM.

`CC(C)(C)NCCc1ccc(Nc2nc(N3CCC[C@@H](NC(=O)Nc4nccs4)C3)c(F)cc2C(N)=O)cc1` [Example 550]: the IC50 was determined as 2 nM at human recombinant Btk and 120 nM in assay [1] (Homo sapiens, Ramos).

With `C[N+](C)([O-])CCc1ccc(Nc2nc(N3CCC[C@@H](NC(=O)Nc4nccs4)C3)c(F)cc2C(N)=O)cc1` [Example 552], the IC50 at human recombinant Btk worked out at 1 nM; in assay [1] (Homo sapiens, Ramos), 5400 nM.

For the molecule `CN1CCC(C)(c2ccc(Nc3nc(N4CCC[C@@H](NC(=O)Nc5nccs5)C4)c(F)cc3C(N)=O)cc2)CC1` [Example 554], the IC50 at human recombinant Btk was 0.7 nM; in assay [1] (Homo sapiens, Ramos) it was 40 nM.

Regarding `NC(=O)c1cc(F)c(N2CCC[C@@H](NC(=O)Nc3nccs3)C2)nc1Nc1ccc(C2CCOCC2)cc1` [Example 555], the IC50 on human recombinant Btk stood at 3 nM; in assay [1] (Homo sapiens, Ramos) it was 190 nM.

`CN1CCCC(c2ccc(Nc3nc(N4CCC[C@@H](NC(=O)Nc5nccs5)C4)c(F)cc3C(N)=O)cc2)C1` (stereo partly drawn) [Example 557]: the IC50 on human recombinant Btk was determined as 2 nM; in assay [1] (Homo sapiens, Ramos), 60 nM.
